Assay [1] deals with STZ-diabetic Wistar rats. Nature of the assay: Experiment 5: urinary protein loss caused by diabetic nephropathy after 1-month treatment. The class given is in vivo, rat. On the procedure:
For the 24-hour period of urine collection, the animals were placed in individual metabolic cages. During this period they were given water ad libitum but no food. The latter measure was necessary to prevent possible contamination by the protein content of the food. Urine was collected in calibrated glass containers, in which Thymol crystal (Reanal 3135-1-08-38) was placed to prevent bacterial contamination.
Before measurement, the urine samples were centrifuged (2500 rpm) and filtered through a paper filter (Whatmann 1). If necessary, they were stored at −20° C. until measurement.
The total protein content of the urine was determined by the Bradford staining method (Sigma B-6916, St. Louis, Mo.), and color intensity was detected by spectrophotometry (Hitachi-U-3200).

For the next assay, the system named is STZ-diabetic rats. To be noted: 2 month. As for the experimental part:
After anesthesia (Calypsovet, 125 mg/kg. Ip., Richter Rt., Hungary), the eyes were enucleated and fixed in 4% formaldehyde dissolved in a phosphate buffer (pH:7.4).
Afterwards, they were embedded in paraffin (Medim DDM P800, embedding center: Lignifer L-120-92-014, stainer: Shandon Eliott, Microtome: is Leica SM 2000 R, Microscope: Jenaval Karl Zeiss Jena). Several 6 micron sections of the eyes were prepared, and hematoxilyn/eosine (Fluka) and PAS (periodic acid-Schiff, Fluka) staining were used. The light-microscopic evaluation was performed at a magnification of 40× and 100×. Photographs and slide positives were prepared of representative samples.
The histological evaluation was performed on coded samples, the group division was unknown for the examiner. Pathological deviations of the retina were graded on a scale of 0-20, while those of the lens on a scale of 0-3.
The statistical calculations were done with the Statistica 4.5 (SatSoft, USA) program. The given value for negative cases was 0.1. A Box and Whisker plot graph was also prepared.
For each group in the experiment, the mean±SE (Standard Error) values were calculated, and the comparison was done with the help of a non-parametric Mann-Whitney U-test (Graphpad Instat, San Diego, Calif.).

Assay [2] has as its system Zucker Diabetic Fatty (ZDF) rats. Particulars: for Fed serum glucose concentrations: 2 × 20 mg/kg/day. As for the experimental part:
A genetically diabetic animal model was selected and the Zucker Diabetic Fatty (ZDF) rats were used in the experiments. This model is the diabetic variant of the insulin resistant, obese but non-diabetic Zucker fa/fa animal model (see Experiment 1). In the ZDF rats diabetes developed at the age of 6-8 weeks preceded by an insulin resistant phase.
The effect of (A+) enantiomer was investigated in a treatment with a dose of 2×20 mg/kg/day started in the non-diabetic phase, at the age of 7 weeks and continued for 6 weeks.
Clinical chemistry parameters were measured by standard methods. The serum insulin concentrations were measured by a recently developed method (ELISA method, DRG lnternational,Inc., U.S.A.).

For assay [3], the system named is STZ-diabetic Wistar rats. The text has this: The experiments were accomplished on Wistar rats with a body weight of 320-350 g. Diabetes was induced and checked as described in Experiment 2. In the test animals having been diabetic for 3 weeks the left nervus ischidiacus was injured by freezing and the right side one was used as non-injured control. The regeneration was observed by monitoring the signals of the flexor reflex provoked by irritation of the sole that is areas under curve (AUC) of the electromyogram transferred from the forward tibial muscle. For the stimulation and detection the system described in Experiment 2 was used. Single daily doses of 10 mg/kg of Compound-A and 5 mg/kg of A(+) enantiomer were administred for 5 weeks after the injury by freezing.

The test system of assay [4] is STZ-diabetic Wistar rats. Nature of the assay: Experiment 6: Compound-A and enantiomers, nerve conduction velocity after 1 month treatment.
Protocol: In the experiments, male Wistar rats were used (Charles River Laboratories Inc.). At the start of the experiment, their weights were 340-370 g. Diabetes was induced by the intravenous administration of a single 45 mg/kg dose of streptozotocine (STZ, Sigma, St. Louis, Mo.) dissolved in physiological saline solution. The development of diabetes was checked after 1 day by a blood glucose test, accepting a value over 15 mmol/l.
The test and reference substances were administered p.os to the animals once a day.
For the determination of nerve conduction velocity (NCV), the method of Stanley, modified by De Konig and Gispen was used. The animals were anesthetized by the simultaneous administration of Hyponorm (1 mg/kg ip., Janssen, Tilburg, Denmark), fluanisone (10 mg/ml), and phentanyl citrate (0.2 mg/ml). Afterwards, the left ischiadicus and tibial nerves were stimulated at standard points. Supramaximal stimulus (square impulse, 0.03 ms) was used with a platinum needle electrode, through a Nihon-Kohden (model SEN-1104, Japan) stimulator. The electromyogram (EMG) transferred from the sole muscles and intensified by a myograph (Elema-Schonander, Stockholm, Sweden) was analyzed further by the Matlab for Windows (Mathwork Inc, UK) program. The extent of NCV damage caused by diabetes was expressed in m/s. The effectiveness of the treatment was compared to this in terms of percentage (%). The statistical calculations were done by unpaired t-test or single-criterion ANOVA test (along with the Newman-Keuls post hoc test).
The subject of assay [5] is high fat (HF) diet insulin resistant male Wistar rats. Nature of the assay: Experiment 8: in vivo insulin-dependent glucose uptake (euglycaemic glucose clamp) in dietary induced insulin resistance.
Protocol: Male Wistar rats (Charles River Laboratories Inc.) with an initial body weight of 300-350 g were used in the experiments.
Insulin resistance was induced by dietary manipulation: animals were given a high fat (HF) diet for 3 weeks. In the HF diet the proportion of saturated fats were dominant and gave 70% of total daily caloric intake.
Briefly: the fasting blood glucose concentration in different animal groups must be identical. Experiments were carried out in conscious, freely moving, chronicly canulated rats: first an insulin infusion (6.4 mU/kg/min) was started, followed by a parallel-run continuous glucose infusion to maintain blood glucose concentrations in the euglycaemic range. After stabilisation the quantity of infused glucose was measured for a 90 min. period (glucose infusion rate=GIR, mg/kg/min) which is the quantitative parameter of insulin sensitivity.
The mark [6] stands for this setting: Compound-A 10 mg/kg, enantiomers 5 mg/kg daily.

Experimental findings from patent US6649628B1, “N-[2-hydroxy-3-(1-piperidinyl)propoxy]pyridine-1-oxide-3-carboximidoyl chloride and its use in the treatment of insulin resistance” (Biorex Kutato es Fejleszto RT, priority 1999, dated 2003) are described below.

Like-named read-outs stand apart in the source and are kept apart here.

Turning to `O=C(O)/C=C\C(=O)O.[O-][n+]1cccc(C(Cl)=NOC[C@H](O)CN2CCCCC2)c1` [A(+), (+)-/R/-N-[2-hydroxy-3-(1-piperidinyl)-propoxy]-pyridine-1-oxide-3-carboximidoyl chloride (Z)-2-butenedioate (1:1)], in the assay on STZ-diabetic Wistar rats [1] (5 mg/kg daily, 1 month, series 2), the “24-hour Urinary Protein Loss Mean ± SE” value amounted to 5.61 ± 1.08 mg/24 h. For the same compound, the “effect on STZ-diabetes-induced urinary protein loss” value in the assay on STZ-diabetic Wistar rats [1] (Bimoclomol 20 mg/kg, Compound-A 10 mg/kg, (+) enantiomer 5 mg/kg daily) is “significantly reduced”. Further, in the assay on STZ-diabetic rats (5 mg/kg daily), the “Scores lenticular + retinal improvement %” value is listed as 42.9%, the “Scores lenticular + retinal mean ± SE” value stood at 4.05 ± 0.80, the “Scores retinal improvement %” value is given as 68.9% and the “Scores retinal mean ± SE” value is given as 1.68 ± 0.63. In addition, in the assay with STZ-diabetic rats (setting [6]), the “effect on lenticular and retinal pathologic histological alterations” value was “significantly improved”; the “effect on retinal histological alterations only” value is “effective”. Also, in assay [2] (2×20 mg/kg/day), the “antidiabetic activity in diabetic animals” value is reported as “strong antidiabetic activity” and the “normalization of blood glucose concentrations” value is on record as “did not normalize”. Moreover, the “Fed serum glucose concentrations” value in assay [2] (3 weeks) amounted to 10.82 ± 1.36 mmol/L. Moreover, in assay [2] (5 weeks), the “Fed serum glucose concentrations” value is 13.25 ± 0.76 mmol/L. In the assay on STZ-diabetic Wistar rats [3] (5 mg/kg daily for 5 weeks), the “neuroregeneration of the non-freezed nerves” value is 83% and the “neuroregenerative effect” value is on record as “strong neuroregenerative effect”. Moreover, the “extent of neuroregeneration of the nerve injured by freezing” value in the assay with STZ-diabetic Wistar rats [3] (5 mg/kg daily for 5 weeks after injury, 5. week, untreated 63%) is on record as 93%. In the assay on STZ-diabetic Wistar rats [4] (5 mg/kg daily, 1 month), this compound registered an MNCV of 56.1 ± 0.5 m/s, an MNCV improvement of 71.3%, an SNCV of 59.7 ± 0.5 m/s and an SNCV improvement of 68.5%. In addition, the “effect on motor (MNCV) and sensory (SNCV) nerve conduction velocity deficits” value in the assay with STZ-diabetic Wistar rats [4] (setting [6]) is “significantly improved”. Moreover, the “effect on fasting blood glucose levels” value in assay [5] (20 mg/kg daily, 3 weeks) is listed as “did not affect”. The “in vivo insulin mediated glucose uptake (glucose infusion rate, GIR)” value in assay [5] (20 mg/kg/day for 3 weeks, euglycaemic glucose clamp, insulin infusion 6.4 mU/kg/min) was 20.5 ± 0.89 mg/kg/min.
